Source: patent US9918990B2, “Substituted pyrrolo[2,3-c]pyridines and pyrazolo[3,4-c]pyridines as BET protein inhibitors” (Incyte Corporation, priority 2013, dated 2018)
Where a name gives a salt, the structure may show the parent alone.

What was measured:
BRD4-BD1 = BRD4-BD1 (Homo sapiens (Human), UniProt O60885); experiment: BRD4 AlphaScreen assay, BRD4-BD1; type: binding; conditions: H4Ac4 peptide, 75 min, room temperature, read-out: BRD4 BD-1 enzyme IC50
Method: (§1) BRD4-BD1 and BRD4-BD2 assays were conducted in white 384-well polystyrene plate in a final volume of 20 μL for BD1 and 40 μL for BD2. Inhibitors were first serially diluted in DMSO and added to the plate wells before the addition of other reaction components. […] After plate sealing, the plate was incubated in the dark at room temperature for 75 min. before reading on a PHERAstar FS plate reader (BMG Labtech). IC50 determination was performed by fitting the curve of percent control activity versus the log of the inhibitor concentration using the GraphPad Prism 5.0 software.

KMS.12.BM cells = experiment: KMS.12.BM cell viability assay (Cell Titer-GLO, ATP quantitation); type: cell-based; conditions: Homo sapiens, 72 h, 3 days, concentration required for 50% cell death, read-out: KMS cellular IC50
Method: KMS.12.BM cell line (human myeloma) was purchased from JCRB (Osaka, Japan) and maintained in RPMI with 10% FBS culture medium. To measure the cytotoxic activity of the compounds through ATP quantitation, the KMS.12.BM cells are plated in the RPMI culture medium at 5000 cells/well/per 100 μL into a 96-well polystyrene clear black tissue culture plate (Greiner-bio-one through VWR, NJ), in the presence or absence of a concentration range of test compounds. After 3 days, […] Cell Titer-GLO Luminescent (Promega, Madison, Wis.) cell culture agent is added to each well for 10 minutes at room temperature to stabilize the luminescent signal. This determines the number of viable cells in culture based on quantitation of the ATP present, which signals the presence of metabolically active cells. Luminescence is measured with the Top Count 384 (Packard Bioscience through Perkin Elmer, Boston, Mass.). Compound inhibition is determined relative to cells cultured with no drug and the IC50 is reported as the compound concentration required for 50% cell death. IC50 data for the Examples is presented in Table 9 as determined by Assay B1.

BRD4-BD2 = BRD4-BD2 (Homo sapiens (Human), UniProt O60885); experiment: BRD4 AlphaScreen assay, BRD4-BD2; type: binding; conditions: H4Ac4 peptide, 75 min, room temperature, read-out: BRD4 BD-2 enzyme IC50
Method: as §1

C-myc = experiment: KMS.12.BM C-myc ELISA assay; type: cell-based; conditions: Homo sapiens; KMS.12.BM cells, 2 hours, concentration required for 50% C-myc inhibition
Method: KMS.12.BM cell line (human myeloma) was purchased from JCRB (Osaka, Japan) and maintained in RPMI with 10% FBS culture medium. To measure the C-myc inhibitory activity of the compounds, the KMS.12.BM cells are plated in the RPMI culture medium at 75000 cells/well/per 200 μL into a 96-well flat bottom polystyrene tissue culture plate (Corning through VWR, NJ), in the presence or absence of a concentration range of test compounds. After 2 hours, cell are pelleted and lysed with Cell Extraction Buffer (BioSource, Carlsbad, Calif.) in the presence of protease inhibitors (Life Technologies, Grand Island, N.Y. and Sigma, St Louis, Mo.). Clarified lyses are tested in a C-myc commercial ELISA (Life Technologies, Grand Island, N.Y.). Compound inhibition is determined relative to cells cultured with no drug and the IC50 is reported as the compound concentration required for 50% C-myc inhibition. IC50 data for the Examples is presented in Table 10 as determined by Assay C1.

Row | SMILES | IC50 (BRD4-BD1) | IC50 (KMS.12.BM cells) | IC50 (BRD4-BD2) | IC50 (C-myc)
1 | Cn1cc(-c2ccc3[nH]cnc3c2Oc2ccc(F)cc2F)c2cc[nH]c2c1=O [Example 2, 4-[4-(2,4-Difluorophenoxy)-1H-benzimidazol-5-yl]-6-methyl-1,6-dihydro-7H-pyrrolo[2,3-c]pyridin-7-one trifluoroacetate] | < 0.1 µM | ≤ 1 µM | < 0.1 µM | ≤ 1 µM
2 | Cc1nc2c(Oc3ccc(F)cc3F)c(-c3cn(C)c(=O)c4[nH]ccc34)ccc2[nH]1 [Example 3, 4-[4-(2,4-Difluorophenoxy)-2-methyl-1H-benzimidazol-5-yl]-6-methyl-1,6-dihydro-7H-pyrrolo[2,3-c]pyridin-7-one trifluoroacetate] | < 0.1 µM | ≤ 1 µM | < 0.1 µM | ≤ 1 µM
3 | Cn1cc(-c2ccc3c(ncn3C)c2Oc2ccc(F)cc2F)c2cc[nH]c2c1=O [Example 4, 4-[4-(2,4-Difluorophenoxy)-1-methyl-1H-benzimidazol-5-yl]-6-methyl-1,6-dihydro-7H-pyrrolo[2,3-c]pyridin-7-one trifluoroacetate] | < 0.1 µM | ≤ 1 µM | < 0.1 µM | ≤ 1 µM
4 | Cc1nc2c(Oc3ccc(F)cc3F)c(-c3cn(C)c(=O)c4[nH]ccc34)ccc2n1C [Example 5, 4-[4-(2,4-Difluorophenoxy)-1,2-dimethyl-1H-benzimidazol-5-yl]-6-methyl-1,6-dihydro-7H-pyrrolo[2,3-c]pyridin-7-one trifluoroacetate] | < 0.1 µM | ≤ 1 µM | < 0.1 µM | ≤ 1 µM
5 | Cn1cc(-c2ccc3c([nH]c(=O)n3C)c2Oc2ccc(F)cc2F)c2cc[nH]c2c1=O [Example 6, 4-(2,4-Difluorophenoxy)-1-methyl-5-(6-methyl-7-oxo-6,7-dihydro-1H-pyrrolo[2,3-c]pyridin-4-yl)-1,3-dihydro-2H-benzimidazol-2-one] | < 0.1 µM | ≤ 1 µM | < 0.1 µM | ≤ 1 µM
6 | Cn1cc(-c2ccc3c(c2Oc2ccc(F)cc2F)n(C)c(=O)n3C)c2cc[nH]c2c1=O [Example 7, 4-(2,4-Difluorophenoxy)-1,3-dimethyl-5-(6-methyl-7-oxo-6,7-dihydro-1H-pyrrolo[2,3-c]pyridin-4-yl)-1,3-dihydro-2H-benzimidazol-2-one] | < 0.1 µM | ≤ 1 µM | < 0.1 µM | 1 to 10 µM
7 | Cn1cc(-c2ccc3[nH]nnc3c2Oc2ccc(F)cc2F)c2cc[nH]c2c1=O [Example 8, 4-[4-(2,4-Difluorophenoxy)-1H-1,2,3-benzotriazol-5-yl]-6-methyl-1,6-dihydro-7H-pyrrolo[2,3-c]pyridin-7-one] | < 0.1 µM | ≤ 1 µM | < 0.1 µM | ≤ 1 µM
8 | Cn1cc(-c2ccc3c(nnn3C)c2Oc2ccc(F)cc2F)c2cc[nH]c2c1=O [Example 9, 4-[4-(2,4-Difluorophenoxy)-1-methyl-1H-1,2,3-benzotriazol-5-yl]-6-methyl-1,6-dihydro-7H-pyrrolo[2,3-c]pyridin-7-one] | < 0.1 µM | ≤ 1 µM | < 0.1 µM | ≤ 1 µM
9 | Cn1cc(-c2ccc3[nH]nnc3c2Oc2ccc(F)cc2F)c2cn[nH]c2c1=O [Example 10, 4-[4-(2,4-Difluorophenoxy)-1H-1,2,3-benzotriazol-5-yl]-6-methyl-1,6-dihydro-7H-pyrazolo[3,4-c]pyridin-7-one] | < 0.1 µM | ≤ 1 µM | < 0.1 µM | ≤ 1 µM
10 | Cn1cc(-c2ccc3[nH]c(=O)[nH]c3c2OCC2CC2)c2cc[nH]c2c1=O [Example 11, 4-(Cyclopropylmethoxy)-5-(6-methyl-7-oxo-6,7-dihydro-1H-pyrrolo[2,3-c]pyridin-4-yl)-1,3-dihydro-2H-benzimidazol-2-one] | < 0.1 µM | ≤ 1 µM | < 0.1 µM | ≤ 1 µM
11 | Cn1cc(-c2ccc3[nH]cnc3c2OCC2CC2)c2cc[nH]c2c1=O [Example 12, 4-[4-(Cyclopropylmethoxy)-1H-benzimidazol-5-yl]-6-methyl-1,6-dihydro-7H-pyrrolo[2,3-c]pyridin-7-one] | < 0.1 µM | ≤ 1 µM | < 0.1 µM | ≤ 1 µM
12 | Cc1nc2c(OCC3CC3)c(-c3cn(C)c(=O)c4[nH]ccc34)ccc2[nH]1 [Example 13, 4-[4-(Cyclopropylmethoxy)-2-methyl-1H-benzimidazol-5-yl]-6-methyl-1,6-dihydro-7H-pyrrolo[2,3-c]pyridin-7-one] | < 0.1 µM | ≤ 1 µM | < 0.1 µM | ≤ 1 µM
13 | Cn1cc(-c2ccc3[nH]cnc3c2Oc2ccc(F)cc2F)c2cn[nH]c2c1=O [Example 14, 4-[4-(2,4-Difluorophenoxy)-1H-benzimidazol-5-yl]-6-methyl-1,6-dihydro-7H-pyrazolo[3,4-c]pyridin-7-one] | < 0.1 µM | ≤ 1 µM | < 0.1 µM | ≤ 1 µM
14 | Cc1nc2c(Oc3ccc(F)cc3F)c(-c3cn(C)c(=O)c4[nH]ncc34)ccc2[nH]1 [Example 15, 4-[4-(2,4-Difluorophenoxy)-2-methyl-1H-benzimidazol-5-yl]-6-methyl-1,6-dihydro-7H-pyrazolo[3,4-c]pyridin-7-one] | < 0.1 µM | ≤ 1 µM | < 0.1 µM | ≤ 1 µM
15 | Cn1cc(-c2ccc3[nH]c(=O)[nH]c3c2Oc2ccc(F)cc2F)c2cn[nH]c2c1=O [Example 16, 4-[4-(2,4-Difluorophenoxy)-2-oxo-2,3-dihydro-1H-benzimidazol-5-yl]-6-methyl-1,6-dihydro-7H-pyrazolo[3,4-c]pyridin-7-one] | < 0.1 µM | ≤ 1 µM | < 0.1 µM | ≤ 1 µM
16 | Cn1cc(-c2ccc3c(ncn3CCN3CCOCC3)c2Oc2ccc(F)cc2F)c2cn[nH]c2c1=O [Example 17, 4-[4-(2,4-Difluorophenoxy)-1-(2-morpholin-4-ylethyl)-1H-benzimidazol-5-yl]-6-methyl-1,6-dihydro-7H-pyrazolo[3,4-c]pyridin-7-one] | < 0.1 µM | ≤ 1 µM | < 0.1 µM | ≤ 1 µM
17 | Cn1cc(-c2ccc3c(ncn3C)c2Oc2ccc(F)cc2F)c2cn[nH]c2c1=O [Example 18, 4-[4-(2,4-Difluorophenoxy)-1-methyl-1H-benzimidazol-5-yl]-6-methyl-1,6-dihydro-7H-pyrazolo[3,4-c]pyridin-7-one] | < 0.1 µM | ≤ 1 µM | < 0.1 µM | ≤ 1 µM
18 | Cc1nc2c(Oc3ccc(F)cc3F)c(-c3cn(C)c(=O)c4[nH]ncc34)ccc2n1C [Example 19, 4-[4-(2,4-Difluorophenoxy)-1,2-dimethyl-1H-benzimidazol-5-yl]-6-methyl-1,6-dihydro-7H-pyrazolo[3,4-c]pyridin-7-one] | < 0.1 µM | ≤ 1 µM | < 0.1 µM | ≤ 1 µM
19 | Cn1cc(-c2ccc3c(nnn3C)c2Oc2ccc(F)cc2F)c2cn[nH]c2c1=O [Example 20, 4-[4-(2,4-Difluorophenoxy)-1-methyl-1H-1,2,3-benzotriazol-5-yl]-6-methyl-1,6-dihydro-7H-pyrazolo[3,4-c]pyridin-7-one] | < 0.1 µM | ≤ 1 µM | < 0.1 µM | ≤ 1 µM
20 | Cn1cc(-c2ccc3c([nH]c(=O)n3C)c2Oc2ccc(F)cc2F)c2cn[nH]c2c1=O [Example 21, 4-[4-(2,4-Difluorophenoxy)-1-methyl-2-oxo-2,3-dihydro-1H-benzimidazol-5-yl]-6-methyl-1,6-dihydro-7H-pyrazolo[3,4-c]pyridin-7-one] | < 0.1 µM | ≤ 1 µM | < 0.1 µM | ≤ 1 µM
21 | Cn1cc(-c2ccc3[nH]c(=O)[nH]c3c2Oc2ccccc2)c2cc[nH]c2c1=O [Example 22, 5-(6-Methyl-7-oxo-6,7-dihydro-1H-pyrrolo[2,3-c]pyridin-4-yl)-4-phenoxy-1,3-dihydro-2H-benzimidazol-2-one] | < 0.1 µM | ≤ 1 µM | < 0.1 µM | ≤ 1 µM
